Columns and labels:
[1] = Acute toxicity, oral, 7 days observation (Litchfield and Wilcoxon); type: in vivo, Maus; settings: in vivo; mouse, oral, 7 days observation; * = highest technically applicable dose; read-out: Akute Toxi-zität LD50 mg/kg KG. Maus oral
Source text: (§1) Für diesen Versuch wurden je 10 männliche und weibliche Mäuse verwendet. Die Testsubstanzen wurden als Suspension in wässriger Carboxymethylcellulose per Magensonde verabreicht. Die Beobachtungszeit betrug 7 Tage. Die Ergebnisse wurden nach der Methode von G.T. Litchfield und F.G. Wilcoxon (J. Pharmacol. Exp. Ther. 96, 1949, 99) errechnet. Die Ergebnisse sind in der nachfolgenden Tabelle zusammengestellt.

Maus [2] = assay: as above; type: in vivo; settings: for Zustand nach 24 h: mouse, oral, condition of animals 24 h after dosing; for Toxizität / Zustand der überlebenden Tiere: statement in words; for Zustand der überlebenden Tiere: findings above the dose without findings
Source text: as §1

Maus [3] = assay: Fighting test: inhibition of current-induced fighting (method of Tedeschi et al.); type: in vivo; settings: statement in words; for tranquillisierende Wirkung im Kampftest: DP 327 compared with Flunitrazepam
Source text: Die Hemmwirkung gegenüber strominduzierter Kampfhandlungen bei Mäusen wurde in der Versuchsanordnung von R. Tedeschi et al. (J. Pharmacol. Exp. Ther. 125, 1959, 28) ermittelt. 10 Paare weiblicher Mäuse werden am Vortag des Versuches 3 Minuten elektrischen Stromstößen von 3,5 mA, 5 Hz und 5 msec ausgesetzt. Am Versuchstag werden die Testsubstanzen als Suspension in wässriger Carboxymethylcellulose mittels Magensonde peroral verabreicht. 30 Minuten nach der Verabreichung werden jeweils ein Paar in einem Testkäfig wieder den Stromstößen ausgesetzt und die innerhalb von 3 Minuten ausgelösten Kampfhandlungen gezählt. Die Zahl der Kampfhandlungen der jeweiligen Dosisgruppen werden addiert und in Prozent gegenüber der Kontrollgruppe berechnet. Der ED50-Wert wurde mittels halblogarithmischer Regression aus den Dosis-Wirkungsbeziehungen bestimmt.

Maus [4] = assay: Prolongation of hexobarbital sleeping time (barbiturate narcosis, method of Fujimoto et al.); type: in vivo; settings: for Verlängerung der Schlaf-zeit in % bei der Maus nach peroraler Gabe von 1mg/kg KG.: mouse, 1 mg/kg p.o., 30 min before 80 mg/kg hexobarbital i.v., versus control group; for schlafverlängernde Wirkung: statement in words
Protocol: (1) Verlängerung der Schlafzeit
Die Wirkung auf die Barbiturat-Narkose wurde in der Versuchsanordnung von J.M. Fujimoto et al. (J. Pharmacol. Exp. Ther. 129, 1960, 139) nachgewiesen. Gruppen von jeweils 10 männlichen Mäusen wurden die Testsubstanzen als Suspension in wässriger Carboxymethylcellulose mittels einer Stahlsonde auf oralem Weg direkt in den Magen verabreicht. 30 Minuten später wurde den Tieren 80 mg/kg Hexobarbital in eine Schwanzvene injiziert. Es wurde die Dauer des Schlafs gemessen und aus den Schlafzeiten der einzelnen Tiere der Kontroll-und Dosisgruppen die jeweiligen Mittelwerte berechnet. Die Verlängerung der Schlafzeit wurde in Prozent gegenüber der Kontrollgruppe berechnet.

[5] = Sleep induction (onset), no method described; type: in vivo; settings: statement in words
[6] = DP 327 compared with Flunitrazepam, Beispiel 12 of DE-OS 14 45 873 compared with DP 327

Row | SMILES | LD50 at 168 h [1] | Zustand nach 24 h (Maus [2]) | Toxizität (Maus [2]) | tranquillisierende Wirkung im Kampftest (Maus [3]) | Verlängerung der Schlaf-zeit in % bei der Maus nach peroraler Gabe von 1mg/kg KG. (Maus [4]) | schlafverlängernde Wirkung (Maus [4]; [6]) | Schlafinduktion [5] | Toxizität (Maus [2]; compared with Lormetazepam) | Zustand der überlebenden Tiere (Maus [2]) | Todesfälle (Maus [2]; up to the highest applicable dose of 8687 mg/kg) | tranquillisierende Wirkung (Maus [3]; compared with Lormetazepam) | schlafverlängernde Wirkung (Maus [4]; compared with Lormetazepam)
1 | O=C1Nc2ccc([N+](=O)[O-])cc2C(c2ccccc2F)=NC1O (centres unmarked) [DP 370, 5-(2-Fluorphenyl)-1,3-dihydro-3-hydroxy-7-nitro-2H-1,4-benzodiazepin-2-on] | > 10000 mg/kg | bis 4640 mg/kg ohne Befund; ab 4640 mg/kg leichte Sedierung Sedierung, und Ataxie. | wesentlich geringeren Toxizität als die genannten Vergleichssubstanzen | gute tranquillisierende | 118% | gute schlafverlängerde Wirkung | – | – | – | – | – | –
2 | CN1C(=O)C(O)N=C(c2ccccc2)c2cc([N+](=O)[O-])ccc21 (centres unmarked) [DE-OS 14 45 873 Beispiel 12, reference compound] | 4700 mg/kg | bis 3200 mg/kg ohne Befund; ab 3200 mg/kg starke Sedierung, Koma. | toxischer als DP 327 | – | 99% | geringerer schlafverlängernder Wirkung | – | – | – | – | – | –
3 | CN1C(=O)C(O)N=C(c2ccccc2F)c2cc([N+](=O)[O-])ccc21 (centres unmarked) [DP 327, 5-(2-Fluorphenyl)-1,3-dihydro-3-hydroxy-1-methyl-7-nitro-2H-1,4-benzodiazepin-2-on] | > 8690 mg/kg | bis 3600 mg/kg ohne Befund; 4824-8687 mg/kg leichte Sedierung. | sehr wenig toxisch | etwa doppelt so starke tranquillisierende Wirkung | 156% | gleichwertig | rasche Schlafinduktion | deutlich überlegen | nur eine leichte Sedierung und Stereotypie | nur vereinzelt Todesfälle | deutlich überlegen | deutlich überlegen
4 | CN1C(=O)CN=C(c2ccccc2F)c2cc([N+](=O)[O-])ccc21 [Flunitrazepam, 5-(2-Fluorphenyl)-1,3-dihydro-1-methyl-7-nitro-2H-1,4-benzodiazepin-2-on, reference compound] | 2700 mg/kg | bis 1100 mg/kg ohne Befund; ab 1100 mg/kg starke Sedierung, Koma, Stereotypie. | – | – | 179% | – | langsam einsetzt | – | von starker Sedierung und Stereotypie bis zum Koma | – | – | –
5 | CN1C(=O)C(O)N=C(c2ccccc2Cl)c2cc(Cl)ccc21 (centres unmarked) [Lormetazepam, 7-Chlor-5-(2-chlorphenyl)-1,3-dihydro-3-hydroxy-1-methyl-2H-1,4-benzodiazepin-2-on, reference compound] | 6300 mg/kg | 900-1240 mg/kg leichte Sedierung; ab 1700 mg/kg zunehmend starke Sedierung. | – | – | 78% | – | fehlt | – | – | – | – | –
